The structures appear in SMILES notation. Where a SMILES comes first, the peptide text is derived from it. Bridges are numbered along the chain shown (N, C = ends). [ ]: non-standard residue; d: D form. Tle = CC(C)(C)[C@H](N)C(=O)O; Nle = CCCC[C@H](N)C(=O)O; Orn = NCCC[C@H](N)C(=O)O; Dab = NCC[C@H](N)C(=O)O; Aib = CC(C)(N)C(=O)O Some results are limits rather than exact numbers.

Assay type in all cases: cell-based
Data set [1] relates to human red blood cells (hRBC). Description: Hemolysis of human red blood cells. The conditions noted are these: red cells of human, 1 h, 100 μg/mL. An outline of the steps:
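hRBC washed 3× PBS; 20% v/v, ~0.9×10^9 cells/mL final. Peptide 100 μg/mL, 1 h, 37° C., 300 rpm. Spin, supernatant diluted 8×, OD540. 0% = PBS + 0.001% acetic acid; 100% = 2.5% Triton X-100. % hemolysis = OD540 peptide/OD540 full lysis × 100.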

Data set [2] has as its system Acinetobacter baumannii 872842. The following applies: 872842.
The test system of data set [3] is Escherichia coli ATCC 25922. The following applies: ATCC 25922. An outline of the steps:
(§1)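 CLSI broth microdilution; MH-II (cation-adjusted) + 0.002% P-80; ~10^6 CFU/mL inoculum; peptide two-fold serial dilutions; 18-20 h, 35° C; MIC = no visible growth, μg/mL.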

The test system of data set [4] is Acinetobacter baumannii DSM 30008. The following applies: DSM 30008. The gist of the method:
as §1

Data set [5] concerns Klebsiella pneumoniae SSI #3010. The following applies: SSI #3010. The gist of the method: as §1
Data set [6] relates to Escherichia coli 926415. The conditions noted are these: 926415.
Data set [7] deals with Klebsiella pneumoniae 968733. The conditions noted are these: 968733.
Data set [8] deals with Pseudomonas aeruginosa ATCC 27853. The following applies: ATCC 27853. The gist of the method:
as §1

`CCCC[C@@H]1NC(=O)[C@@H]2CCCN2C(=O)[C@H]2CCCN2C(=O)[C@H](CO)NC(=O)[C@H](C)NC(=O)[C@H](C(C)(C)C)NC(=O)[C@@H](NC(=O)[C@H](Cc2c[nH]c3ccccc23)NC(C)=O)CSSC[C@@H](C(=O)NC(C)(C)C(=O)N[C@@H](CCN)C(=O)N[C@H](C(=O)N[C@@H](CCN)C(=O)N[C@H]2CCNC(=O)[C@H]([C@@H](C)O)NC(=O)[C@H](CCN)NC(=O)[C@H](CCN)NC(=O)[C@H](CC(C)C)NC(=O)[C@@H](Cc3ccccc3)NC(=O)[C@H](CCN)NC2=O)[C@@H](C)O)NC(=O)[C@H](Cc2ccc(O)cc2)NC(=O)[C@H](CO)NC1=O` [Ex. 30] (Ac-WC[Tle]AS[dP]P[Nle]SYC[Aib][Dab]T[Dab][Dab][Dab][dF]L[Dab][Dab]T; disulfide 2-11; lactam 16-C): the “Hemolysis at 100 μg/mL” value in data set [1] is given as under 1%. Further, the “Acinetobacter baumannii 872842 MIC” value in data set [2] was found to be 1 µg/mL. Moreover, the “Escherichia coli ATCC 25922 MIC” value in data set [3] was 0.25 µg/mL. In addition, the “Acinetobacter baumannii DSM 30008 MIC” value in data set [4] is 0.25 µg/mL. Further, the “Klebsiella pneumoniae SSI #3010 MIC” value in data set [5] was found to be 0.25 µg/mL. The “Escherichia coli 926415 MIC” value in data set [6] worked out at 1 µg/mL. Besides, in data set [7], the “Klebsiella pneumoniae 968733 MIC” value is 0.25 µg/mL. The “Pseudomonas aeruginosa ATCC 27853 MIC” value in data set [8] came to 0.5 µg/mL.
Take `CCCC[C@@H]1NC(=O)[C@@H]2CCCN2C(=O)[C@H]2CCCN2C(=O)[C@H](CO)NC(=O)[C@H](C)NC(=O)[C@H](C(C)(C)C)NC(=O)[C@@H](NC(=O)[C@H](Cc2c[nH]c3ccccc23)NC(C)=O)CSSC[C@@H](C(=O)N[C@@H](CCN)C(=O)NCC(=O)N[C@H](C(=O)N[C@@H](CCN)C(=O)N[C@H]2CCNC(=O)[C@H]([C@@H](C)O)NC(=O)[C@H](CCN)NC(=O)[C@H](CCN)NC(=O)[C@H](CC(C)C)NC(=O)[C@@H](Cc3ccccc3)NC(=O)[C@H](CCN)NC2=O)[C@@H](C)O)NC(=O)[C@H](Cc2ccc(O)cc2)NC(=O)[C@H](CO)NC1=O` [Ex. 31] (Ac-WC[Tle]AS[dP]P[Nle]SYC[Dab]GT[Dab][Dab][Dab][dF]L[Dab][Dab]T; disulfide 2-11; lactam 16-C): the “Hemolysis at 100 μg/mL” value in data set [1] came out at 2%. Moreover, in data set [2], the “Acinetobacter baumannii 872842 MIC” value stood at 1 µg/mL. In data set [3], the “Escherichia coli ATCC 25922 MIC” value stood at 0.5 µg/mL. In addition, the “Acinetobacter baumannii DSM 30008 MIC” value in data set [4] amounted to 0.125 µg/mL. Besides, the “Klebsiella pneumoniae SSI #3010 MIC” value in data set [5] stood at 0.25 µg/mL. Besides, in data set [6], the “Escherichia coli 926415 MIC” value was 1.5 µg/mL. In addition, the “Klebsiella pneumoniae 968733 MIC” value in data set [7] amounted to 0.75 µg/mL. Besides, the “Pseudomonas aeruginosa ATCC 27853 MIC” value in data set [8] was found to be 1 µg/mL.
For the molecule `CCCC[C@@H]1NC(=O)[C@@H]2CCCN2C(=O)[C@H]2CCCN2C(=O)[C@H](CO)NC(=O)[C@H](C)NC(=O)[C@H](C(C)(C)C)NC(=O)[C@@H](NC(=O)[C@H](Cc2c[nH]c3ccccc23)NC(C)=O)CSSC[C@@H](C(=O)N[C@@H](CCN)C(=O)N[C@H](C(=O)N[C@H](C)C(=O)N[C@@H](CCN)C(=O)N[C@H]2CCNC(=O)[C@H]([C@@H](C)O)NC(=O)[C@H](CCN)NC(=O)[C@H](CCN)NC(=O)[C@H](CC(C)C)NC(=O)[C@@H](Cc3ccccc3)NC(=O)[C@H](CCN)NC2=O)[C@@H](C)O)NC(=O)[C@H](Cc2ccc(O)cc2)NC(=O)[C@H](CO)NC1=O` [Ex. 32] (Ac-WC[Tle]AS[dP]P[Nle]SYC[Dab]T[dA][Dab][Dab][Dab][dF]L[Dab][Dab]T; disulfide 2-11; lactam 16-C), the “Hemolysis at 100 μg/mL” value in data set [1] came to 2%. For the same molecule, the “Acinetobacter baumannii 872842 MIC” value in data set [2] was 0.25 µg/mL. The “Escherichia coli ATCC 25922 MIC” value in data set [3] was found to be 0.125 µg/mL. Moreover, the “Acinetobacter baumannii DSM 30008 MIC” value in data set [4] is 0.125 µg/mL. The “Klebsiella pneumoniae SSI #3010 MIC” value in data set [5] worked out at 0.25 µg/mL. In addition, in data set [6], the “Escherichia coli 926415 MIC” value worked out at 0.5 µg/mL. Moreover, in data set [7], the “Klebsiella pneumoniae 968733 MIC” value amounted to 1 µg/mL. Besides, the “Pseudomonas aeruginosa ATCC 27853 MIC” value in data set [8] is 0.25 µg/mL.
For `CCCC[C@@H]1NC(=O)[C@@H]2CCCN2C(=O)[C@H]2CCCN2C(=O)[C@H](CO)NC(=O)[C@H](C)NC(=O)[C@H](C(C)(C)C)NC(=O)[C@@H](NC(=O)[C@H](Cc2c[nH]c3ccccc23)NC(C)=O)CSSC[C@@H](C(=O)N[C@@H](CCN)C(=O)N[C@H](C(=O)N[C@@H](CCN)C(=O)NCC(=O)N[C@H]2CCNC(=O)[C@H]([C@@H](C)O)NC(=O)[C@H](CCN)NC(=O)[C@H](CCN)NC(=O)[C@H](CC(C)C)NC(=O)[C@@H](Cc3ccccc3)NC(=O)[C@H](CCN)NC2=O)[C@@H](C)O)NC(=O)[C@H](Cc2ccc(O)cc2)NC(=O)[C@H](CO)NC1=O` [Ex. 33] (Ac-WC[Tle]AS[dP]P[Nle]SYC[Dab]T[Dab]G[Dab][Dab][dF]L[Dab][Dab]T; disulfide 2-11; lactam 16-C), the “Hemolysis at 100 μg/mL” value in data set [1] is listed as 1%. The “Acinetobacter baumannii 872842 MIC” value in data set [2] is 0.25 µg/mL. In addition, in data set [3], the “Escherichia coli ATCC 25922 MIC” value came out at 0.25 µg/mL. For the same molecule, the “Acinetobacter baumannii DSM 30008 MIC” value in data set [4] was determined as 0.125 µg/mL. Also, the “Klebsiella pneumoniae SSI #3010 MIC” value in data set [5] turned out to be 0.5 µg/mL. In addition, in data set [6], the “Escherichia coli 926415 MIC” value worked out at 1 µg/mL. Further, the “Klebsiella pneumoniae 968733 MIC” value in data set [7] amounted to 0.75 µg/mL. Besides, the “Pseudomonas aeruginosa ATCC 27853 MIC” value in data set [8] came to 0.5 µg/mL.
For the molecule `CCCC[C@@H]1NC(=O)[C@@H]2CCCN2C(=O)[C@H]2CCCN2C(=O)[C@H](CO)NC(=O)[C@H](C)NC(=O)[C@H](C(C)(C)C)NC(=O)[C@@H](NC(=O)[C@H](Cc2c[nH]c3ccccc23)NC(C)=O)CSSC[C@@H](C(=O)N[C@@H](CCN)C(=O)N[C@H](C(=O)N[C@@H](CCN)C(=O)N[C@@H](CCN)C(=O)N[C@H]2CCNC(=O)[C@H]([C@@H](C)O)NC(=O)[C@H](CCN)NC(=O)[C@H](CCN)NC(=O)[C@H](CC(C)C)NC(=O)[C@@H](Cc3ccccc3)NC(=O)[C@H](CCN)NC2=O)[C@@H](C)O)NC(=O)[C@H](Cc2ccc(O)cc2)NC(=O)[C@H](CO)NC1=O` [Ex. 34] (Ac-WC[Tle]AS[dP]P[Nle]SYC[Dab]T[Dab][Dab][Dab][Dab][dF]L[Dab][Dab]T; disulfide 2-11; lactam 16-C), in data set [1], the “Hemolysis at 100 μg/mL” value came to 1%. For the same molecule, the “Acinetobacter baumannii 872842 MIC” value in data set [2] is 0.125 µg/mL. Moreover, the “Escherichia coli ATCC 25922 MIC” value in data set [3] was found to be 0.0625 µg/mL. Moreover, the “Acinetobacter baumannii DSM 30008 MIC” value in data set [4] came out at 0.25 µg/mL. Also, in data set [5], the “Klebsiella pneumoniae SSI #3010 MIC” value turned out to be 0.125 µg/mL. For the same molecule, the “Escherichia coli 926415 MIC” value in data set [6] worked out at 0.25 µg/mL. In data set [7], the “Klebsiella pneumoniae 968733 MIC” value turned out to be 1 µg/mL. For the same molecule, the “Pseudomonas aeruginosa ATCC 27853 MIC” value in data set [8] is 0.125 µg/mL.
On to `CCCC[C@@H]1NC(=O)[C@@H]2CCCN2C(=O)[C@H]2CCCN2C(=O)[C@H](CO)NC(=O)[C@H](C)NC(=O)[C@H](C(C)(C)C)NC(=O)[C@@H](NC(=O)[C@H](Cc2c[nH]c3ccccc23)NC(=O)[C@H](CCN)NC(C)=O)CSSC[C@@H](C(=O)N[C@@H](CCCN)C(=O)N[C@@H](CCN)C(=O)N[C@H]2CCNC(=O)[C@H]([C@@H](C)O)NC(=O)[C@H](CCN)NC(=O)[C@H](CCN)NC(=O)[C@H](CC(C)C)NC(=O)[C@@H](Cc3ccccc3)NC(=O)[C@H](CCN)NC2=O)NC(=O)[C@H](Cc2ccc(O)cc2)NC(=O)[C@H](CO)NC1=O` [Ex. 35] (Ac-[Dab]WC[Tle]AS[dP]P[Nle]SYC[Orn][Dab][Dab][Dab][dF]L[Dab][Dab]T; disulfide 3-12; lactam 15-C), for which the “Hemolysis at 100 μg/mL” value in data set [1] is reported as 1%. Further, in data set [2], the “Acinetobacter baumannii 872842 MIC” value worked out at 1 µg/mL. In addition, in data set [3], the “Escherichia coli ATCC 25922 MIC” value was 0.25 µg/mL. Moreover, in data set [4], the “Acinetobacter baumannii DSM 30008 MIC” value turned out to be 0.5 µg/mL. In addition, in data set [5], the “Klebsiella pneumoniae SSI #3010 MIC” value worked out at 0.25 µg/mL. For the same molecule, in data set [6], the “Escherichia coli 926415 MIC” value amounted to 0.5 µg/mL. Besides, in data set [7], the “Klebsiella pneumoniae 968733 MIC” value was found to be 2 µg/mL. Also, in data set [8], the “Pseudomonas aeruginosa ATCC 27853 MIC” value was determined as 1 µg/mL.

Values taken from patent US10829520B2, “Beta-hairpin peptidomimetics” (POLYPHOR AG, priority 2015, dated 2020).
